Publication PMC12300231, “Ferroptosis Among the Antiproliferative Pathways Activated by a Lipophilic Ruthenium(III) Complex as a Candidate Drug for Triple-Negative Breast Cancer” (Pharmaceutics, 2025)

What was measured:
MDA-MB-231 cells = assay: Mitochondria morphological analysis by confocal microscopy (MitoTracker Red); assay type: cell-based, Human; conditions: MDA-MB-231, 48 h, cDDP 10 µM or Erastin 10 µM, vs untreated cells
Description: Morphological changes in the mitochondria of MDA-MB-231 cells after treatments in vitro were determined using the MitoTracker Red CMXRos selective probe (Ex\Em 579/599 nm). Briefly, 1.5 × 10^4 cells were seeded in a four-well µ-Slide and incubated for 48 h. Then, cells were treated with the IC50 concentration of PalmiPyRu, cDDP (10 µM) or Erastin (10 µM), respectively, for a further 48 h. After incubations, cells were treated with FBS-free medium containing 100 nM MitoTracker at 37 °C for 20 min. To label the nuclei, a DAPI (Ex/Em 358/461 nm) solution (1:1000) was used at room temperature for 10 min of incubation. Fluorescence images were captured using a confocal microscope (Zeiss LSM 900 Airyscan 2) with a 63× magnification (oil-immersion objective).

HaCaT = assay: Cell survival index, biocompatibility on healthy cells; assay type: cell-based, Human; conditions: 48 h of incubation, mean ± SEM (n = 15)
Description: The antiproliferative activity was evaluated by estimating a “cell survival index” through targeted bioscreens, which joins cell viability assessment (by the MTT functional assay) with automated cell count (quantitative assay by automatic cell counter). Specifically, the “cell survival index” is calculated as the arithmetic average between the percentage values derived from the MTT assay and automated cell counting. For in vitro treatments, TNBC cell lines (MDA-MB-231, Hs 578T and BT-549) were seeded into 96-well culture plates at a density of 10^4 cells/well and allowed to grow for 24 h. […]
(§1) The same experimental setup in vitro was applied to assess the biocompatibility of PalmiPyRu on healthy control cell lines (HDFas, HHFKs, HaCaTs and […]). Cell viability was measured using the MTT assay (Sigma, Milan, Italy), which evaluates mitochondrial redox capacity to convert dissolved MTT into insoluble purple formazan. […] Finally, absorbance was measured at 550 nm using a microplate reader (ThermoFisher, Waltham, MA, USA). Total cell counting was determined using the TC20 automated cell counter (Bio-Rad, Milan, Italy), which provides accurate and reproducible total cell counts and a live/dead ratio in a single step using a specific dye exclusion assay (Trypan Blue). […] The mixture was loaded into disposable slide chamber and analyzed. […]

HDFa = assay: as above; assay type: cell-based; conditions: 48 h of incubation, mean ± SEM (n = 15)
Description: (§2) The antiproliferative activity was evaluated by estimating a “cell survival index” through targeted bioscreens, which joins cell viability assessment (by the MTT functional assay) with automated cell count (quantitative assay by automatic cell counter). Specifically, the “cell survival index” is calculated as the arithmetic average between the percentage values derived from the MTT assay and automated cell counting. For in vitro treatments, TNBC cell lines (MDA-MB-231, Hs 578T and BT-549) were seeded into 96-well culture plates at a density of 10^4 cells/well and allowed to grow for 24 h. The culture medium was then replaced with fresh medium, and the cells were treated with PalmiPyRu at concentrations ranging from 5 to 150 μM for different times, depending on the type of experiment. Cisplatin (cDDP) was used as a reference drug (positive control).
as §1, with “formazan. Briefly, after treatments, the medium was removed, and cells were incubated with 20 μL/well of MTT solution (5 mg/mL) for 1 h at 37 °C in a humidified 5% CO2 incubator.” for “formazan.”, “analyzed. The instrument provided a total cell count (cells/mL), live cell count and percent viability, automatically adjusting for dilution if Trypan Blue was detected.” for “analyzed.”
(§3) All subsequent in vitro experiments were performed using PalmiPyRu IC50 concentrations, calculated as previously described.

MCF-10A = assay: as above; assay type: cell-based; conditions: MCF-10A healthy cells, 48 h of incubation, mean ± SEM (n = 15)
Description: as §2
as §1, with “formazan. Briefly, after treatments, the medium was removed, and cells were incubated with 20 μL/well of MTT solution (5 mg/mL) for 1 h at 37 °C in a humidified 5% CO2 incubator.” for “formazan.”, “analyzed. The instrument provided a total cell count (cells/mL), live cell count and percent viability, automatically adjusting for dilution if Trypan Blue was detected.” for “analyzed.”
as §3

HHFK = assay: as above; assay type: cell-based; conditions: 48 h of incubation, mean ± SEM (n = 15)
Description: as §2
as §1, with “formazan. Briefly, after treatments, the medium was removed, and cells were incubated with 20 μL/well of MTT solution (5 mg/mL) for 1 h at 37 °C in a humidified 5% CO2 incubator.” for “formazan.”, “analyzed. The instrument provided a total cell count (cells/mL), live cell count and percent viability, automatically adjusting for dilution if Trypan Blue was detected.” for “analyzed.”
as §3

MDA-MB-231 = assay: Cell survival index (MTT assay plus automated cell count), IC50; assay type: cell-based, Human; conditions: MDA-MB-231 TNBC cells, 48 h of incubation, mean ± SEM (n = 15)
Description: as §2
as §1, with “formazan. Briefly, after treatments, the medium was removed, and cells were incubated with 20 μL/well of MTT solution (5 mg/mL) for 1 h at 37 °C in a humidified 5% CO2 incubator.” for “formazan.”, “analyzed. The instrument provided a total cell count (cells/mL), live cell count and percent viability, automatically adjusting for dilution if Trypan Blue was detected.” for “analyzed.”
as §3

BT-549 = assay: as above; assay type: cell-based, Human; conditions: BT-549 TNBC cells, 48 h of incubation, mean ± SEM (n = 15)
Description: as §2
as §1, with “formazan. Briefly, after treatments, the medium was removed, and cells were incubated with 20 μL/well of MTT solution (5 mg/mL) for 1 h at 37 °C in a humidified 5% CO2 incubator.” for “formazan.”, “analyzed. The instrument provided a total cell count (cells/mL), live cell count and percent viability, automatically adjusting for dilution if Trypan Blue was detected.” for “analyzed.”
as §3

Hs578T = assay: as above; assay type: cell-based, Human; conditions: Hs578T TNBC cells, 48 h of incubation, mean ± SEM (n = 15)
Description: as §2
as §1, with “formazan. Briefly, after treatments, the medium was removed, and cells were incubated with 20 μL/well of MTT solution (5 mg/mL) for 1 h at 37 °C in a humidified 5% CO2 incubator.” for “formazan.”, “analyzed. The instrument provided a total cell count (cells/mL), live cell count and percent viability, automatically adjusting for dilution if Trypan Blue was detected.” for “analyzed.”
as §3

Structure (SMILES) | Mitochondrial red fluorescent signal (MitoTracker) (MDA-MB-231 cells) | IC50 (HaCaT) | IC50 (HDFa) | IC50 (MCF-10A) | IC50 (HHFK) | IC50 (MDA-MB-231) | IC50 (BT-549) | IC50 (Hs578T)
CCOc1ccccc1-n1c(C(C)N2CCN(C(=O)COc3ccc(Cl)cc3)CC2)nc2ccccc2c1=O (stereo not drawn) [Erastin] | lowered the mitochondrial fluorescent signal |  |  |  |  |  |  | 
[NH2][Pt]([NH2])([Cl])[Cl] [cDDP, cisplatin] | significantly reduced | 50 ± 3 µM | 72 ± 4 µM | 88 ± 3 µM | 93 ± 3 µM | 11 ± 3 µM | 15 ± 2 µM | 20 ± 4 µM
